Data as given in US20080004320A1, “Remedy for Glomerular Disease” (Kowa Co., Ltd., priority 2004, published 2008).
Counter-ions that a name gives are not always drawn.

System: ⅚ nephrectomized rats
Test: Effect on ⅚ nephrectomized rat (progressive renal failure model)
Type: in vivo
Details: for death due to renal failure, compared with control group (FIG. 1): until week 15 after initiation of drug administration; for glomerulosclerosis score compared with control group (in words) / Glomerulosclerosis (score): week 15 after initiation of drug administration; for Glomerulosclerosis (score): average score of 50 glomeruli per renal tissue piece, male SD rats
From the text: Fifty-one male SD rats (seven weeks old, purchased from Japan SLC, Inc.) were anesthetized with pentobarbital, and the left kidney of each rat was exposed. Under a stereoscopic microscope, two of the left renal artery branches (generally, one renal artery is separated into three branches) were ligated and one central branch was left intact. When a renal artery branch is ligated, a portion controlled by the branch falls into ischemia, and such an ischemic renal portion can be visually detected. One week later, the right kidney was removed. That is to say, ⅚ of the kidneys was removed. Four weeks after surgery, blood was collected from each rat under unanesthetized conditions, and plasma creatinine level (Pcr) was measured. Pcr is a blood parameter indicative of renal function, and an increase in Pcr indicates impairment of renal function. After Pcr measurement, rats with considerably impaired renal function and rats with no impairment of renal function were eliminated, to thereby select 36 rats employed for the test.
Subsequently, on the basis of the thus-obtained Pcr data, these rats were divided into four groups in such a manner that the value of Pcr was averaged out among each group: control group (i.e., no drug administration group) (N=9); pyridoxamine dihydrochloride administration group (administered in the form of aqueous solution (1.5 g/L)) (N=9); candesartan cilexetil administration group ((1 mg/kg) administered orally once a day) (N=9); and combined administration group (pyridoxamine dihydrochloride administered in the form of aqueous solution (1.5 g/L), and candesartan cilexetil (1 mg/kg) administered orally once a day) (N=9). In addition to these four groups, one normal rat group non-surgical group, was provided.
Pyridoxamine dihydrochloride was dissolved in purified water, and the aqueous solution was available to the rats ad libitum. The daily dose of pyridoxamine dihydrochloride was about 100 mg/kg Candesartan cilexetil was suspended in 0.5% methyl cellulose sodium solution upon use, and the suspension was repeatedly orally administered.
Drug administration was initiated at week five after surgery (Pcr was about 1.5 mg/dL at the start of drug administration; i.e., renal function had already been impaired).
After initiation of drug administration, the number of surviving rats was recorded every day. Per was measured at week two, week four, week seven, week 11, and week 15 after initiation of drug administration. Urinary total protein excretion was measured at week four, week seven, week 11 and week 15 after initiation of drug administration (each measurement was performed after 18-hour urine accumulation). In addition, at week 15 after initiation of drug administration, systolic blood pressure was measured under unanesthetized conditions by means of a noninvasive blood pressure measuring apparatus.
At week 15 after initiation of drug administration, the renal tissue of each rat was observed, and the degree of glomerulosclerosis was evaluated on the basis of the below-described score. […] As used herein, the term “score” refers to the degree of glomerulosclerosis; i.e., the degree of hyperplasia of mesangial matrix in glomeruli. […] Score 0 was assigned to a glomerulus similar to that of rats in the normal rat group; score 1 was assigned to a glomerulus in which the area of mesangial matrix accounts for less than 25%; score 2 was assigned to a glomerulus in which the area of mesangial matrix accounts for 25% or more and less than 50%; score 3 was assigned to a glomerulus in which the area of mesangial matrix accounts for 50% or more and less than […]; and score 4 was assigned to a glomerulus in which the area of mesangial matrix accounts for 75% or more. The average of the thus-obtained scores of the glomeruli was employed for evaluation of glomerulosclerosis.

CCOc1nc2cccc(C(=O)OC(C)OC(=O)OC3CCCCC3)c2n1Cc1ccc(-c2ccccc2-c2nnn[nH]2)cc1 (stereo not drawn) [Candesartan cilexetil, 1-(cyclohexyloxycarbonyloxy)ethyl 2-ethoxy-1-[2′-(1H-tetrazol-5-yl)biphenyl-4-ylmethyl]-1H-benzimidazole-7-carboxylate]
death due to renal failure, compared with control group (FIG. 1): tendency for suppression of death due to renal failure was observed | glomerulosclerosis score compared with control group (in words): reduction in score was observed | Glomerulosclerosis (score): 1.52 ± 0.45 score

Cc1ncc(CO)c(CN)c1O [Pyridoxamine dihydrochloride, 4-(aminomethyl)-5-hydroxy-6-methyl-3-pyridinemethanol]
death due to renal failure, compared with control group (FIG. 1): tendency for suppression of death due to renal failure was observed | glomerulosclerosis score compared with control group (in words): no reduction in score was observed | Glomerulosclerosis (score): 1.93 ± 0.35 score
